Assay results: patent publication US9527885B2, “Hepatitis C virus inhibitors” (BRISTOL-MYERS SQUIBB COMPANY, priority 2011, dated 2016)

Key:
[1] = test system: HCV genotype 1a (H77 strain) replicon in HUH-7 cells; experiment: HCV replicon luciferase reporter assay, genotype 1a; type: cell-based; conditions: Hepatitis C virus, Huh-7, 72 h, HCV genotype 1a replicon luciferase, 3 days incubation, class symbols, read-out: LE_1a (EC50, range)
How it was run: (§1)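 Twenty-point, threefold compound titrations (0.5% DMSO) were incubated 3 days at 37 °C with 3.0×10^3 HUH-7 cells/well in 4% FCS. The cells stably carried luciferase replicons: genotype 1b Con1 (S1179I) or 1a H77 (NS3 P1496L, NS5A S2204I). Renilla signal was read after 2 h with 7.5 μM EnduRen, and EC50 was taken from a four-parameter logistic fit. Cytotoxicity (CC50) was measured by Cell Titer-Blue, 8 h.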

[2] = test system: HCV genotype 1b (Con1) replicon in HUH-7 cells; experiment: HCV replicon luciferase reporter assay, genotype 1b; type: cell-based; conditions: Hepatitis C virus, 72 h, HCV genotype 1b replicon luciferase, 3 days incubation, class symbols, read-out: LE_1b (EC50, range)
How it was run: as §1

Row | SMILES | EC50 [1] [nM] | EC50 [2] [nM]
1 | CCOc1cnc(O[C@@H]2C[C@H]3C(=O)N[C@]4(C(=O)NS(=O)(=O)C5(C)CC5)C[C@H]4/C=C\CC[C@H](C)C[C@@H](C)[C@H](NC(=O)OC(C)(C)C(C)(F)F)C(=O)N3C2)c2ccccc12 [Compound 5112, 3,3-difluoro-2-methylbutan-2-yl ((2R,6S,7R,9S,13aS,14aR,16aS,Z)-2-((4-ethoxyisoquinolin-1-yl)oxy)-7,9-dimethyl-14a-(((1-methylcyclopropyl)sulfonyl)carbamoyl)-5,16-dioxo-1,2,3,5,6,7,8,9,10,11,13a,14,14a,15,16,16a-hexadecahydrocyclopropa[e]pyrrolo[1,2-a][1,4]diazacyclopentadecin-6-yl)carbamate] | 4.82 to 103 | 4.82 to 103
2 | CCOc1cnc(O[C@@H]2C[C@H]3C(=O)N[C@]4(C(=O)NS(=O)(=O)C5(C)CC5)C[C@H]4/C=C\CC[C@@H](C)C[C@@H](C)[C@H](NC(=O)OC(C)(C)C(C)(F)F)C(=O)N3C2)c2ccccc12 [Compound 5113, 3,3-difluoro-2-methylbutan-2-yl ((2R,6S,7R,9R,13 aS,14aR,16aS,Z)-2-((4-ethoxyisoquinolin-1-yl)oxy)-7,9-dimethyl-14a-(((1-methylcyclopropyl)sulfonyl)carbamoyl)-5,16-dioxo-1,2,3,5,6,7,8,9,10,11,13a,14,14a,15,16,16a-hexadecahydrocyclopropa[e]pyrrolo[1,2-a][1,4]diazacyclopentadecin-6-yl)carbamate] | < 5.46 | < 5.46
3 | C[C@@H]1CC/C=C\[C@@H]2C[C@@]2(C(=O)NS(=O)(=O)C2(C)CC2)NC(=O)[C@@H]2C[C@@H](Oc3nccc4c(N5CCOCC5)cccc34)CN2C(=O)[C@@H](NC(=O)OC(C)(C)C(F)(F)F)[C@H](C)C1 [Compound 5124, 1,1,1-trifluoro-2-methylpropan-2-yl ((2R,6S,7R,9R,13aS,14aR,16aS,Z)-7,9-dimethyl-14a-(((1-methylcyclopropyl)sulfonyl)carbamoyl)-2-((5-morpholinoisoquinolin-1-yl)oxy)-5,16-dioxo-1,2,3,5,6,7,8,9,10,11,13a,14,14a,15,16,16a-hexadecahydrocyclopropa[e]pyrrolo[1,2-a][1,4]diazacyclopentadecin-6-yl)carbamate] | < 5.46 | < 5.46
4 | C[C@@H]1CC/C=C\[C@@H]2C[C@@]2(C(=O)NS(=O)(=O)C2(C)CC2)NC(=O)[C@@H]2C[C@@H](Oc3nccc4c(N5CCOCC5)cccc34)CN2C(=O)[C@@H](NC(=O)OC(C)(C)C(C)(F)F)[C@H](C)C1 [Compound 5126, 3,3-difluoro-2-methylbutan-2-yl ((2R,6S,7R,9R,13aS,14aR,16aS,Z)-7,9-dimethyl-14a-(((1-methylcyclopropyl)sulfonyl)carbamoyl)-2-((5-morpholinoisoquinolin-1-yl)oxy)-5,16-dioxo-1,2,3,5,6,7,8,9,10,11,13a,14,14a,15,16,16a-hexadecahydrocyclopropa[e]pyrrolo[1,2-a][1,4]diazacyclopentadecin-6-yl)carbamate] | < 5.46 | < 5.46
5 | CCOc1ccc2c(O[C@@H]3C[C@H]4C(=O)N[C@]5(C(=O)NS(=O)(=O)C6CC6)C[C@H]5/C=C\CC[C@H](C)C[C@@H](C)[C@H](NC(=O)OC(C)(C)C(F)(F)F)C(=O)N4C3)nccc2c1 [Compound 5129, 1,1,1-trifluoro-2-methylpropan-2-yl ((2R,6S,7R,9S,13aS,14aR,16aS,Z)-14a-((cyclopropylsulfonyl)carbamoyl)-2-((6-ethoxyisoquinolin-1-yl)oxy)-7,9-dimethyl-5,16-dioxo-1,2,3,5,6,7,8,9,10,11,13a,14,14a,15,16,16a-hexadecahydrocyclopropa[e]pyrrolo[1,2-a][1,4]diazacyclopentadecin-6-yl)carbamate] | 4.82 to 103 | < 5.46
